From US11311524B2, “Pharmaceutical composition used for treatment of HTLV-1-associated myelopathy” (DAIICHI SANKYO COMPANY, LIMITED, priority 2017, dated 2022)

Tests used:
HAM patient-derived PBMC = assay: IL-10 and other cytokine release from HAM patient-derived PBMC (Cytokine Beads Array); type: cell-based, human; conditions: PBMC of 8 HAM patients, 12 days culture, 1-1000 nM, relative to DMSO
Method: PBMC taken from 8 HAM patients were suspended in a culture medium (RPMI1640 culture medium containing 10% FBS), seeded in a 48-well plate in a ratio of 5×10^5 cells per well and a compound A or compound B was added so as to provide a final concentration of 1, 10, 100 or 1000 nM. The culture solution of 0.5 mL in total was cultured at 37° C. in 5% CO2 conditions for 12 days. A group treated with DMSO and a group treated with PSL (1 μg/mL) were used as controls. Day 12 after initiation of the culture, the culture solution was centrifuged, and thereafter, the culture supernatant alone was recovered. The concentration of IL-10 in the culture supernatant was determined by use of the Cytokine Beads Array kit (BD Biosciences) and a flow cytometer FACSCantoII (BD Biosciences) (Yamauchi et al., J Infect Dis. 2015, 211 (2): 238-48). Based on the IL-10 concentration in the culture solution of the DMSO treatment group as 100%, changes in IL-10 concentration of culture solutions of groups treated with compound A and compound B different in concentration or a group treated with PSL (1 μg/mL) were compared. The significance test was carried out by using the Friedman test of GraphPad Prism6 (MDF).

[1] = tested on: HTLV-1 infected cells in HAM patient's PBMC; assay: HTLV-1 pro-viral load (infected cell rate) in HAM patient-derived PBMC by real time PCR; type: cell-based, human; conditions: 12 days culture; for Reduction in HTLV-1 pro-viral load: 1000 nM, average of all HAM patients; for Cases in which HTLV-1 pro-viral load in HAM patient's PBMC decreases: PBMC of 8 HAM patients
Method: PBMC taken from 8 HAM patients were suspended in a culture medium (RPMI1640 culture medium containing 10% FBS) and seeded in a 48-well plate in a ratio of 5×10^5 cells per well, and compound A or compound B was added so as to provide a final concentration of 1, 10, 100 or 1000 nM. The culture solution of 0.5 mL in total was cultured at 37° C. in 5% CO2 conditions for 12 days. A group treated with DMSO and a group treated with PSL (1 μg/mL) were used as controls. Day 12 after initiation of culture, the culture solution was centrifuged, and thereafter, the cell suspension was recovered from each of the cultures carried out under different conditions and centrifuged. After the supernatant was removed, the cell pellet was subjected to genomic DNA extraction. The genome DNA extracted was subjected to real time PCR to measure HTLV-1 pro-viral load (infected cell rate) (Yamano et al., Blood. 2002, 99 (1): 88-94). Based on the HTLV-1 pro-viral load in cells, which were obtained by adding DMSO to each of the HAM patient's PBMC and culturing the PBMC, as 100%, the relative value of HTLV-1 pro-viral load in a group treated with compound A, compound B or PSL was calculated, and then, an average value of 8 HAM patient cases was obtained. The significance test was carried out by using the Friedman test of GraphPad Prism6 (MDF).

HCT-4 cells = assay: Proliferation/viability of HTLV-1 infected cell line HCT-4 (CCK-8); type: cell-based, human; conditions: for Viability of HTLV-1 infected cells vs DMSO group: HCT-4, 1 μM, up to 21 days culture; for GI50: Homo sapiens, 336 h, 14 days culture, CCK-8
Method: (§1) HCT-4 and HCT-5, which were HTLV-1 infected cell lines established from the cerebrospinal fluid of HAM patients, were donated from a professor, Tatsufumi Nakamura of the Nagasaki International University. HCT-4 was cultured in RPMI1640 culture medium containing 10% FBS (GIBCO), a 1% penicillin-streptomycin solution (Wako) and 100 U/mL IL-2 (Cell Science & Technology Institute, Inc.); whereas HCT-5 was cultured by using 10% FBS, 1% penicillin-streptomycin solution, 1% L-glutamine (SIGMA) and 200 U/mL IL-2. HCT-4 (3×10^6 cells) or HCT-5 (2.5×10^6 cells) were seeded in a culture medium (20 mL) in a 75 cm^2-culture flask. DMSO was added and compound A or B was added so as to provide a final concentration of 1 μM and culture was carried out at 37° C. in 5% CO2 conditions for 21 days while repeating subculture. In the subculture, a culture solution containing HCT-4 treated with DMSO so as to correspond to 3×10^6 cells, whereas a culture solution containing HCT-5 treated with DMSO so as to correspond to 2.5×10^6 cells were taken and each added to a new culture medium to obtain a final volume of 20 mL, and then, further compound A or B was added so as to obtain the same concentration as above. Day 7, 14 and 21 after initiation of culture, cells were recovered from the culture solution and the density of the cells was measured. In this manner, the effect of compound A or B on cell proliferation was examined. The density of cells was determined by seeding cultured cells in a 96-well plate in a volume of 100 μL per well, adding 10 μL of Cell counting kit-8 (CCK-8) (Dojindo Laboratories laboratory) per well, incubating the cells at 37° C. for 3 hours and measuring absorbance at 450 nm by a plate reader (iMark Microplate Reader, Biorad). The proliferation rates of cell groups treated with compound A or compound B were each calculated based on the cell group treated with DMSO as a control. Next, in a 6-well plate, HCT-4 (4.5×10^5 cells) or HCT-5 (3.75×10^5 cells) were seeded. A solution of compound A or B prepared with DMSO was serially diluted (4-fold dilution from 10000 nM was serially repeated 8 times) and added thereto. The cells were repeatedly subcultured at intervals of 3 to 4 days in a culture solution of 3 mL in total at 37° C. in 5% CO2 condition for 14 days. […] The cells cultured for 14 days in individual conditions were recovered and the density of the cells were measured. […] The density of cells was determined by seeding the cultured cells (100 μL) per well in a 96-well plate, adding 10 μL of CCK-8 per well, incubating the cells at 37° C. for 3 hours and measuring absorbance at 450 nm by a plate reader. The proliferation rate of a group treated with compound A or compound B was calculated based on the group treated with DMSO as a control.

HCT-5 cells = assay: Proliferation/viability of HTLV-1 infected cell line HCT-5 (CCK-8); type: cell-based, human; conditions: for Viability of HTLV-1 infected cells vs DMSO group: HCT-5, 1 μM, up to 21 days culture; for GI50: Homo sapiens, 336 h, 14 days culture, CCK-8
Method: as §1

EZH1 = EZH1 (Homo sapiens, UniProt Q92800); conditions: from WO2015/141616; cited from earlier work
Sequence of EZH1 (Q92800 whole entry): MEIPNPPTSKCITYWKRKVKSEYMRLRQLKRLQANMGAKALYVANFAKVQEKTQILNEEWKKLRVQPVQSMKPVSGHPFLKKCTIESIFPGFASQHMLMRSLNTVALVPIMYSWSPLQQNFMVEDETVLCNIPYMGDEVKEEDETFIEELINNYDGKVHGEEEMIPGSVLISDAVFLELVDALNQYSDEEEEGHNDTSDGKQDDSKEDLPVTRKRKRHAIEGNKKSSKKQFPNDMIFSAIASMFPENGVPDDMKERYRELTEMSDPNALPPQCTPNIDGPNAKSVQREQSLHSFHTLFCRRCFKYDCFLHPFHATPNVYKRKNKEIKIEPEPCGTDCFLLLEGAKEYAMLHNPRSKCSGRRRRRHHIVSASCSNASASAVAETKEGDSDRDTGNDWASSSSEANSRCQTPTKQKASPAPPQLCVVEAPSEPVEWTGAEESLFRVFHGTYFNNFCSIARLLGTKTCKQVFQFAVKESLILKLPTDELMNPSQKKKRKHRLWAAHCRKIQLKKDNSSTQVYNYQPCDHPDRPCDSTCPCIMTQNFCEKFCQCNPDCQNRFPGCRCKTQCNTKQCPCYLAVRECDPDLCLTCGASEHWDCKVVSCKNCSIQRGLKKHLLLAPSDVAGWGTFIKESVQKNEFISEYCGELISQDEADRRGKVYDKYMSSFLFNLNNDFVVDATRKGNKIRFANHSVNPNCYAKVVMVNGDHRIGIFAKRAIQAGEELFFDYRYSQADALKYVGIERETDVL
Sequence of EZH1 (O75530 whole entry partner): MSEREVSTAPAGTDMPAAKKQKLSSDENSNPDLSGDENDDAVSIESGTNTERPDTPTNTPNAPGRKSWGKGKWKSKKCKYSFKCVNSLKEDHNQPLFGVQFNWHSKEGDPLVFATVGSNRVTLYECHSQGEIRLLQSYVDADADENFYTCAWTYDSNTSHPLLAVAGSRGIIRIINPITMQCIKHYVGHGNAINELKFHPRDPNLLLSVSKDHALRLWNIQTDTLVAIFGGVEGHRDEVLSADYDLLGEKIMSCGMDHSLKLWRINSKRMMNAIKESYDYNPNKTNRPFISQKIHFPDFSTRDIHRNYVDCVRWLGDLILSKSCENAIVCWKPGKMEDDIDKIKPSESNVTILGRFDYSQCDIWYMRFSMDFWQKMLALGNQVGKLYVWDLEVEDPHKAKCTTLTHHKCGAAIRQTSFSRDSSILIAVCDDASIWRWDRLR
Sequence of EZH1 (Q15022 whole entry partner): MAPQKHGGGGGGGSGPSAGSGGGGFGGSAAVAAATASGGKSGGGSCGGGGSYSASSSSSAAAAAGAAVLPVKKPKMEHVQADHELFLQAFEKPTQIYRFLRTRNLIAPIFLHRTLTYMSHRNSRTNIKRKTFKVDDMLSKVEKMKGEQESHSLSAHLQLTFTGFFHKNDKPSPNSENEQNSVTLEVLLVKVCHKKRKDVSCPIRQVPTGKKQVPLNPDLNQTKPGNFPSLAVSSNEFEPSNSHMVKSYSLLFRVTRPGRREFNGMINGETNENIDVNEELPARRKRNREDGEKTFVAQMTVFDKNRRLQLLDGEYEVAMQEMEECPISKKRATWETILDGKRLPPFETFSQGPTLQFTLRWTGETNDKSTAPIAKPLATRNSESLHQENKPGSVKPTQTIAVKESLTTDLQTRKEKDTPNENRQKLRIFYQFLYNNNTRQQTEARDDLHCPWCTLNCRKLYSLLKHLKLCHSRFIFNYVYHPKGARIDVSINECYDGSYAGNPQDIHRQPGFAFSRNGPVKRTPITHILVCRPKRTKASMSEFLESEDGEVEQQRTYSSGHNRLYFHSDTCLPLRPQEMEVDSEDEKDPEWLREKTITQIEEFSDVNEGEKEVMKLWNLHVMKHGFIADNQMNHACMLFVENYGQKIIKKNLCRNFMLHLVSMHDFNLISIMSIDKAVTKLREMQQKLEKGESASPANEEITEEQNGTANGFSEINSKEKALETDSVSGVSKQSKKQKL
Sequence of EZH1 (Q09028 whole entry partner): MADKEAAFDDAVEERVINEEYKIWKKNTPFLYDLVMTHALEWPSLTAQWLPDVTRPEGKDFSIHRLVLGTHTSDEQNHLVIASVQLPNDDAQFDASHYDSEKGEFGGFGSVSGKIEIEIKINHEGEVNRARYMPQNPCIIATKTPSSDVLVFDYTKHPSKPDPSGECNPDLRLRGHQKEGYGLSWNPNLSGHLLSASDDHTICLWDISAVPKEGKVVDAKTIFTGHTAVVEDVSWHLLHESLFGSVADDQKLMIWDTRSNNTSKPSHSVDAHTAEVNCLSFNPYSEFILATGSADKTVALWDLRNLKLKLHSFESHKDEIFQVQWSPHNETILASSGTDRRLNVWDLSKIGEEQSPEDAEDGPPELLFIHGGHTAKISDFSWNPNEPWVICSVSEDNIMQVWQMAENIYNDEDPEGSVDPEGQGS

EZH2 = EZH2 (Homo sapiens, UniProt Q15910); conditions: from WO2015/141616; cited from earlier work
Sequence of EZH2 (Q15910 whole entry): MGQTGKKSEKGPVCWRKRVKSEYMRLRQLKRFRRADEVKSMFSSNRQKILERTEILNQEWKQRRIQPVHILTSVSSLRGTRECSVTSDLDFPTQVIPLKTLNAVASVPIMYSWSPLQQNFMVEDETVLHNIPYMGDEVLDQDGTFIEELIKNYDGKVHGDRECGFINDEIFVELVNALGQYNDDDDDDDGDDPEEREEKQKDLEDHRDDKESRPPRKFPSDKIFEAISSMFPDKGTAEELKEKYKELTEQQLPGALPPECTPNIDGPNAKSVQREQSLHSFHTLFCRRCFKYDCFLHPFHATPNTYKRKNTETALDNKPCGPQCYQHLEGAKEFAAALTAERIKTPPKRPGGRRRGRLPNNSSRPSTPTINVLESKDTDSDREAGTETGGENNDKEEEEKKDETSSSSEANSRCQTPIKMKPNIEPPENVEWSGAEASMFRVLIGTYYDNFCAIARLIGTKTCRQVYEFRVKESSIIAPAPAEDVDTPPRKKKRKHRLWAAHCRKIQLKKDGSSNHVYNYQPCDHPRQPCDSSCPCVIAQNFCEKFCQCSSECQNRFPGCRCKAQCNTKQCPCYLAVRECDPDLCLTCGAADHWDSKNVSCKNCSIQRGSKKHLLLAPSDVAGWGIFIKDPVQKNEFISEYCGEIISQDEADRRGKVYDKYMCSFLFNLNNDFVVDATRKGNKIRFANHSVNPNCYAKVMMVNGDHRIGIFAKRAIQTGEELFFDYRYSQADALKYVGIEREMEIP
Sequence of EZH2 (O75530 whole entry partner): as the sequence (O75530 whole entry partner) above
Sequence of EZH2 (Q15022 whole entry partner): as the sequence (Q15022 whole entry partner) above
Sequence of EZH2 (Q09028 whole entry partner): as the sequence (Q09028 whole entry partner) above

Q: With Cc1cc(C)c(CNC(=O)c2cc(Br)c3c(c2C)O[C@@](C)([C@H]2CC[C@H](N(C)C)CC2)O3)c(=O)[nH]1 [compound A, (2R)-7-bromo-2-[trans-4-(dimethylamino)cyclohexyl]-N-[(4,6-dimethyl-2-oxo-1,2-dihydropyridin-3-yl)methyl]-2,4-dimethyl-1,3-benzodioxole-5-carboxamide] as the molecule, how does the “Yield of IL-10 from PBMC” value (HAM patient-derived PBMC) read?
A: dramatically increased

Q: And the “Reduction in HTLV-1 pro-viral load” value [1]?
A: significant reduction in pro-viral load

Q: What about the “Cases in which HTLV-1 pro-viral load in HAM patient's PBMC decreases” value [1] of the same molecule?
A: 5 out of 8

Q: And the “Viability of HTLV-1 infected cells vs DMSO group” value (“Viability … vs DMSO group” below) (HCT-4 cells)?
A: significantly reduce the viability

Q: What about the GI50 (HCT-4 cells) of the same molecule?
A: 7.63 nM

Q: What about the “Viability … vs DMSO group” value (HCT-5 cells) of the same molecule?
A: significantly reduce the viability

Q: And the GI50 (HCT-5 cells)?
A: 185 nM

Q: What about the “Inhibition of enzyme activity of EZH1” value (EZH1) of the same molecule?
A: inhibit

Q: And the “Inhibition of enzyme activity of EZH2” value (EZH2)?
A: inhibit

Q: Which “Yield of IL-10 from PBMC” value (HAM patient-derived PBMC) does the source give for Cc1cc(C)c(CNC(=O)c2cc(Cl)c3c(c2C)O[C@@](C)([C@H]2CC[C@H](N(C)C)CC2)O3)c(=O)[nH]1 [compound B, (2R)-7-chloro-2-[trans-4-(dimethylamino)cyclohexyl]-N-[(4,6-dimethyl-2-oxo-1,2-dihydropyridin-3-yl)methyl]-2,4-dimethyl-1,3-benzodioxole-5-carboxamide] here?
A: dramatically increased

Q: What about the “Reduction in HTLV-1 pro-viral load” value [1] of the same molecule?
A: significant reduction in pro-viral load

Q: And the “Cases in which HTLV-1 pro-viral load in HAM patient's PBMC decreases” value [1]?
A: 5 out of 8

Q: And the “Viability … vs DMSO group” value (HCT-4 cells)?
A: significantly reduce the viability

Q: And the GI50 (HCT-4 cells)?
A: 5.92 nM

Q: And the “Viability … vs DMSO group” value (HCT-5 cells)?
A: significantly reduce the viability

Q: And the GI50 (HCT-5 cells)?
A: 90.6 nM

Q: And the “Inhibition of enzyme activity of EZH1” value (EZH1)?
A: inhibit

Q: And the “Inhibition of enzyme activity of EZH2” value (EZH2)?
A: inhibit
